Source: patent US20250312338A1, “TREATMENT OF NEUROLOGICAL DISORDERS” (Praxis Precision Medicines, Inc., priority 2022, published 2025)
In brackets after ≈: the same amount, converted by molar mass. Entries after “also recorded” stand apart in the source; their conditions may differ. Read-outs that look alike come from different tables or passages of the source.

Experiments:
[1] = in vivo
Excerpt: (§2) This was a 2-part randomized, placebo-controlled Phase 1 trial in healthy participants aged 18-55 years. […] PD effects were examined on quantitative EEG (qEEG; resting and vigilant conditions) and stimulated EEG using auditory steady state response (ASSR). A total of 48 participants were enrolled; Part A, n=30; Part B, n=18.

[2] = target: T1, human NaV1.6 (Homo sapiens, UniProt Q9UQD0); test: Peak INa use dependent block (UDB-10 Hz), PatchXpress patch clamp; assay type: cell-based; conditions: hNaV1.6
T1 construct: HEK-293 cell lines stably expressing either human NaV1.6 (NP_055006); expressed in transfected cells
T1 sequence (Q9UQD0 whole entry): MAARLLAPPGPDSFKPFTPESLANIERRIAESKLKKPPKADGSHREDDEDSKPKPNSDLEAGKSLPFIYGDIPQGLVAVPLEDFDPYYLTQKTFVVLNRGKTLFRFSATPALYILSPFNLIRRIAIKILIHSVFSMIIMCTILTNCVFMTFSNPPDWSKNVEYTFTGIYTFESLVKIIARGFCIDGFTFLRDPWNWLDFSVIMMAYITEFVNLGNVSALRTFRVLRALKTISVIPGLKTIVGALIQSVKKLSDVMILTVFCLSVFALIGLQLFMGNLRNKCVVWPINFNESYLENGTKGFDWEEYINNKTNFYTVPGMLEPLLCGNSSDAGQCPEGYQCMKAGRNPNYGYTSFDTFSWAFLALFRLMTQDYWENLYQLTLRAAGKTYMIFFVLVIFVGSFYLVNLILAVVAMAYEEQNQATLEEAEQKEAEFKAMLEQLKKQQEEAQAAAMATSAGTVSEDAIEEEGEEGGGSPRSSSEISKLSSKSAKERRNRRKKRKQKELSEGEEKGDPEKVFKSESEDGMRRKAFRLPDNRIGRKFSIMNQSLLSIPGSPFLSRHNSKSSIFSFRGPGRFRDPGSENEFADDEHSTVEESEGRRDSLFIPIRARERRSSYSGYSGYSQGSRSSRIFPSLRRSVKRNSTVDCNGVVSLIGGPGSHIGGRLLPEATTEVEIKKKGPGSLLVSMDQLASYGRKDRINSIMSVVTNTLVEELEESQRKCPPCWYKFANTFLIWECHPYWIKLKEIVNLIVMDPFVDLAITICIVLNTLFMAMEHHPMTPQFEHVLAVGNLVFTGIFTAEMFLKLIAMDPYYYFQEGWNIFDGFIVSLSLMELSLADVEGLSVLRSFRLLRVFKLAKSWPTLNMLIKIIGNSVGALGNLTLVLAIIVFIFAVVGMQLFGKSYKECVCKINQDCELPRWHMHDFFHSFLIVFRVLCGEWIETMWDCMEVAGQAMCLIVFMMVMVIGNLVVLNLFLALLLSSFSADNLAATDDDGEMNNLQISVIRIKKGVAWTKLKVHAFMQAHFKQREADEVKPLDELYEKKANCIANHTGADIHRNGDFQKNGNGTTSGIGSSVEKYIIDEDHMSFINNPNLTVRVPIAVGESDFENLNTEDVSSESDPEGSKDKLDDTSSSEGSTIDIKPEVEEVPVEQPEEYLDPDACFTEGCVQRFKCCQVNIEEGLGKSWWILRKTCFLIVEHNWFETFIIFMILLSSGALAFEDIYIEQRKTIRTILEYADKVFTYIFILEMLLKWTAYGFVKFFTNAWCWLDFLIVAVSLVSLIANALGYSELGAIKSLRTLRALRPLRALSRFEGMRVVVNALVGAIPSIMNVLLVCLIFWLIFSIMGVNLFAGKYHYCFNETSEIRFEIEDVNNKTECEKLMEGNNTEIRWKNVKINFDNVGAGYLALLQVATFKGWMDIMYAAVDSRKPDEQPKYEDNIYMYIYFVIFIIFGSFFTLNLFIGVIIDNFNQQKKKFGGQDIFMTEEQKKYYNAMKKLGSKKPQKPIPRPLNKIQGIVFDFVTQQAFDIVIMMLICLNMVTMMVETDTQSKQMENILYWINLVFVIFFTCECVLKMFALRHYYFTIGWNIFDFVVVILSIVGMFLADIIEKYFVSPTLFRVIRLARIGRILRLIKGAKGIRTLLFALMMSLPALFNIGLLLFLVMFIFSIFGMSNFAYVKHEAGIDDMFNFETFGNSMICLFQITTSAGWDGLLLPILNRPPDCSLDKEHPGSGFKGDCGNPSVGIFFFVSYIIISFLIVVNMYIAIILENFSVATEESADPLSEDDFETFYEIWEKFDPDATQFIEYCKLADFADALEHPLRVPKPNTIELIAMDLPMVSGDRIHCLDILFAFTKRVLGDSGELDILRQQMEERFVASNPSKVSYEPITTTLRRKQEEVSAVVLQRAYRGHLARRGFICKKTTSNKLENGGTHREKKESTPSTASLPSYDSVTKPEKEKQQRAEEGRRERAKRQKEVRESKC

[3] = test system: MES-induced seizures in male CD-1 mice; test: Maximal electroshock seizure (MES) test; assay type: in vivo, mouse
Protocol: Food and water were available ad libitum.
VPA was prepared in saline (Vehicle 1). All solutions were protected from light. All compounds and vehicles were dosed at 10 ml/kg.
The MES test was carried out over two days with 6 of 12 mice from each treatment group being tested on each day. Mice were brought to the test room at least one hour before the start of the experiment.
A Grass S88x (Grass Technologies of Astro-Med, Inc., West Warwick, RI) Stimulus Isolation Unit (A385, WPI Inc., USA) was set to deliver a 50 mA square-wave stimulus, with a 0.8 second duration, a pulse width of 10 msec, and a frequency of 50 Hz. A pair of custom stainless steel electrodes were soaked in 0.2% Agar, and then the subject received bilateral transauricular stimulation through ear-clip electrodes. During the stimulation, mice were manually restrained. They were then released into the observation cage for convulsion observation for 60 seconds immediately after stimulation. Each mouse was observed continuously by individuals blinded to treatment conditions and results were recorded.
Anti-seizure assessment endpoints were: (1) latency of hindlimb tonic flexion; (2) latency of hindlimb tonic extension; (3) total #hindlimb tonic flexions; (4) total #hindlimb tonic extensions; (5) latency to death; and (6) mortality rate
From these fitted curves, ED50 and EC50 values were calculated.

[4] = in vivo; conditions: male, CD-1, mouse
Protocol: (§3) Male CD-1 mice, 6-weeks old, were obtained from Vital River (Beijing, China). The average body weight was 25-35 g at the time the experiments were carried out. The mice were housed in groups of 3-5 under controlled conditions (temperature: 20-26° C.; humidity: 40-70%; air exchange rate: 10-15 cycles/hour; 12:12 light-dark cycle with lights on at 5:00 a.m.). Food and water were available ad libitum. The mice were acclimated to these conditions for 6 days before the start of the studies.
(§4) Dosing solutions were prepared on each experiment day. […] All solutions were protected from light. Samples from dosing solutions were stored at 4° C. Both compound and vehicle were dosed at 10 ml/kg.
(§5) The sLMA test was carried out over two days. 5 of 10 mice from each treatment group were tested on each day. All animals were marked on the tail with a permanent marker and weighed. Mice were randomly assigned into one of the four treatment groups. Animals were acclimated to the test room at least 30 minutes before the start of the experiment.
(§6) Possible side effects, such as overt sedation, were recorded just before the start of the sLMA test.
(§7) Each mouse was automatically tracked with overhead cameras using a 1-minute sampling window in an isolated chamber. Spontaneous locomotor activity was then analyzed offline using the Animal Behavior Video Tracking Analysis System (Ji Liang Software Technology Co., Ltd., Shanghai, China).
(§8) Locomotor status was defined as >2 mm of movement in every 200 ms (Frame-rate recorded was 20 frames/second. Locomotor status was identified in every 4 frame-to-frame interval. The accumulated shift of tracking spots that exceeded 2 mm in every 4 frame intervals was identified as a locomotor epoch). Traveling distance was calculated automatically from all the locomotion epochs and analyzed.
(§9) All mice were anesthetized with CO2. Then, terminal plasma and brain tissue samples were collected from animals in the drug treatment groups. 500 μL whole blood was collected via cardiac puncture and placed in tubes with 10 μL EDTAK2. The tubes were then placed in wet ice until centrifuged at 2000 g for 5 minutes at 4° C. The supernatant plasma was pipetted into Eppendorf tubes.
(§10) Data are presented as mean±s.e.m., and p<0.05 was regarded as statistically significant.
(§11) Calculating TD50 and TC50 values Dose-response and concentration-response curves for plasma and brain were fitted for each end-point using GraphPad Prism. From these fitted curves, TD50 and TC50 values were calculated.
(§12) Compound 1 and CBZ were prepared individually in 35% HPBCD. […] All solutions were dosed at 10 mL/kg. Just before the start of the sLMA test, possible side effects such as overt sedation were recorde.

[5] = test system: male CD-1 mice; test: Spontaneous locomotor activity (sLMA) test
Protocol: as §3, §4, §5, §6, §7, §8, §9, §10, §11, §12

[6] = Open-label study in DEE patients, pharmacokinetics (preliminary data); assay type: in vivo, human
Excerpt: The purpose of this study is to evaluate the safety and tolerability of Compound 1, to assess the effect of Compound 1 on the frequency of motor seizures, and to characterize the pharmacokinetics (PK) of oral suspension Compound 1 in patients with developmental and epileptic encephalopathies (DEE).
This is an open-label proof of concept study with 3 cohorts of DEE patients (SCN2A, SCN8A, and Tuberous Sclerosis Complex (TSC)) between 2 years old and 17 years old. There will be an 8-week screening period followed by a 16-week treatment period comprised of 8-week dose optimization period and 8-week maintenance period, and a 4-week safety follow-up period or roll-over into LTE. The rationale for 16-week treatment period is based on the current knowledge of Compound 1 pharmacokinetics, which is predicted to potentially take about 6 weeks to achieve 90% steady state. The 8-week dose optimization period allows for adjusting concomitant SCBs and the additional 8 weeks will allow for evaluation of tolerability and efficacy signal during the maintenance period.
Dosing will be guided by preclinical data (targeting concentration between EC50 and EC90 from MES model) and modeling from adult PK data, and duration of dose optimization phase will be predicated on adult PK data. During the dose optimization period, the dose adjustment will be as follows. […]

[7] = Phase 1 single/multiple ascending dose and food effect trial, pharmacokinetics; assay type: in vivo, human; conditions: for Tmax: human, plasma
Protocol: (§1) This was a 3-part Phase 1 clinical trial in healthy participants aged 18-55 years. Parts A and B were randomized, placebo-controlled and evaluated the effects of single (2.5-150 mg) and multiple (30-120 mg, 14 days QD (every day)) ascending oral doses of Compound 1, respectively. Part C was an open-label, randomized, crossover design evaluating the PK of a single oral dose (90 mg) in fasted and fed states. In Parts A (n=64) and B (n=32), participants were randomized 3:1 to Compound 1 or placebo (n=8/cohort). In Part C (n=16), participants were randomized 1:1 to one of two treatment sequences receiving a single dose of 90 mg Compound 1 in the fed (following a high-fat/high calorie meal) or fasted (>10 hours after the last, and 4 hours before the next, meal) state.

[8] = test system: healthy participants; test: Phase 1 single/multiple ascending dose and food effect trial, safety and tolerability; assay type: in vivo, human; conditions: whole trial
Protocol: as §1

[9] = test system: healthy participants; test: Phase 1 28-day trial (Part A 90 mg; Part B OXC + 120 mg), safety and tolerability; assay type: in vivo, human
Excerpt: as §2

[10] = Half-life of Compound 1 as stated in dosing guidance of Example 13; conditions: human, in vivo
[11] = Phase 1 28-day trial (Part A 90 mg; Part B OXC + 120 mg), pharmacokinetics
Excerpt: as §2

NC(=O)N1c2ccccc2CC(O)c2ccccc21 (stereo not shown) [10-Hydroxycarbamezapine]
exposure when administered concomitantly with Compound 1 vs alone [1]: similar

NC(=O)N1c2ccccc2C=Cc2ccccc21 [Carbamazepine]
use-dependent block of peak INa (in words) ([2]; frequency increased to 30 Hz or 50 Hz): could be observed
use-dependent block of peak INa (in words) ([2]; stimulation frequency 10 Hz): not observed
mice protected from MES-induced tonic hindlimb seizures ([3]; 30 mg/kg): all mice
EC50 ([4]; in vivo): 19000 nM
sLMA at the dose required for complete seizure prevention ([5]; mouse, in vivo): significant reduction

NC(=O)O[C@@H](Cn1ncnn1)c1ccccc1Cl [Cenobamate]
Ratio to Peak INa (TB) (TB / UDB-10 Hz) [2]: 2.3

CCOC(F)(F)c1nnc2cnc(-c3cnc(OCC(F)(F)F)c(F)c3)cn12 [Compound 1]
approach to steady state ([6]; after 28 days of once daily dosing and auto-titration): approaches steady state
Compound 1 exposures on Day 1 (after single dose) ([6]; first 12 DEE participants, preliminary): above therapeutic range; also recorded: above predicted therapeutic levels
increase in AUC, fed vs fasted ([7]; 90 mg single dose): 14%
increase in Cmax, fed vs fasted ([7]; 90 mg single dose): 9%
Tmax ([7]; oral, 90 mg, 90 mg single dose, fasted, read-out: tmax, fasted state): 2.5 h
Tmax ([7]; oral, 90 mg, 90 mg single dose, fed, read-out: tmax, fed state): 4 h
Tmax ([7]; po, healthy adults, read-out: time to observed maximum concentration (tmax)): 2 to 3 h
exposure vs dose ([7]; over the evaluated dose range): increased dose proportionally
TEAEs that were mild [8]: > 92%
TEAEs mild or moderate ([9]; Part A): 100%
TEAEs moderate in severity ([9]; Part A): 29%
tolerability in healthy adults ([9]; Part A, 90 mg): well tolerated
TEAEs mild in severity ([9]; Part A, 90 mg QD 28 days vs placebo, 35 TEAEs across 13 participants): 71%
review of ALT/AST increases and rhabdomyolysis ([9]; Part B): did not identify a causal association
half-life [10]: ~96 h
EC50 ([4]; plasma (free concentration), oral): 309 nM
effect on locomotor function ([5]; 10 mg/kg): no effect
total traveling distance in the 30-minute sLMA test ([5]; 20 and 40 mg/kg p.o.): significantly reduced; also recorded: reductions
TC50 (free brain) Tolerability (sLMA) ([5]; free brain concentration): 69.7 nM
TC50 in brain, free (sLMA) ([5]; free brain concentration): 69.7 nM
TC50 in plasma, free (sLMA) ([5]; free plasma concentration): 308.9 nM
TC50 in brain (sLMA) ([5]; total brain concentration): 1899 ng/g
TC50 in plasma (sLMA) ([5]; total plasma concentration): 1.553 µg/mL (≈ 3.81 µM)
increase in Compound 1 concentrations over the human-equivalent dose required for efficacy in preclinical MES models [11]: 13 fold
approach to steady state ([11]; 90 mg for 28 days): approached steady state

Nc1nnc(-c2cccc(Cl)c2Cl)c(N)n1 [Lamotrigine]
use-dependent block of peak INa (in words) ([2]; stimulation frequency 10 Hz): not observed
mice protected from MES-induced tonic hindlimb seizures ([3]; 10 mg/kg): eight of 12
EC50 ([4]; in vivo): 20500 nM

NC(=O)N1c2ccccc2CC(=O)c2ccccc21 [Oxcarbazepine, reference compound]
patients in whom TEAEs were observed ([9]; Part B, per arm): 75%
exposure when administered concomitantly with Compound 1 vs alone [1]: similar
